Assay results taken from publication PMC7658347, “The cryo-EM structure of a γ-TuSC elucidates architecture and regulation of minimal microtubule nucleation systems” (Nature Communications, 2020).

Molecular target: T1, C. albicans γ-TuSC (γ-tubulin small complex; Spc97, Spc98, γ-tubulin/Tub4) (Candida albicans, UniProt O93807)
T1 construct: full-length, codon-optimized genes, expressed in SF21 insect cells; heterotetramer; N-terminal 91 (Spc97) and 149 (Spc98) residues not resolved; with Spindle pole body component (Spc97); Spindle pole body component (Spc98)
T1 sequence (O93807 1-502): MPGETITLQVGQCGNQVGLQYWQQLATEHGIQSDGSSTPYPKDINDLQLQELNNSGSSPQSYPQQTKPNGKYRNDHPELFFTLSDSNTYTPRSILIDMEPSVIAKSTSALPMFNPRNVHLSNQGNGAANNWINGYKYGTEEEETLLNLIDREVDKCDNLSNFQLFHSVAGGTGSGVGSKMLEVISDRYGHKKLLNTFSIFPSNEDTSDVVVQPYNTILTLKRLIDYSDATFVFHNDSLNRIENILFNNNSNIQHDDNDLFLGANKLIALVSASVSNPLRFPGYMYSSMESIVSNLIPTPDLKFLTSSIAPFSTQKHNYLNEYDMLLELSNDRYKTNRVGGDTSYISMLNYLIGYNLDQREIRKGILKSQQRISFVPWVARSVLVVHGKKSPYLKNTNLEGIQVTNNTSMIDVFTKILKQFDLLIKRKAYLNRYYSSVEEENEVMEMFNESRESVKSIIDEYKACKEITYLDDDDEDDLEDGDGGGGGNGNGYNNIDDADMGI
T1 sequence (Q59PZ2 1-871 partner): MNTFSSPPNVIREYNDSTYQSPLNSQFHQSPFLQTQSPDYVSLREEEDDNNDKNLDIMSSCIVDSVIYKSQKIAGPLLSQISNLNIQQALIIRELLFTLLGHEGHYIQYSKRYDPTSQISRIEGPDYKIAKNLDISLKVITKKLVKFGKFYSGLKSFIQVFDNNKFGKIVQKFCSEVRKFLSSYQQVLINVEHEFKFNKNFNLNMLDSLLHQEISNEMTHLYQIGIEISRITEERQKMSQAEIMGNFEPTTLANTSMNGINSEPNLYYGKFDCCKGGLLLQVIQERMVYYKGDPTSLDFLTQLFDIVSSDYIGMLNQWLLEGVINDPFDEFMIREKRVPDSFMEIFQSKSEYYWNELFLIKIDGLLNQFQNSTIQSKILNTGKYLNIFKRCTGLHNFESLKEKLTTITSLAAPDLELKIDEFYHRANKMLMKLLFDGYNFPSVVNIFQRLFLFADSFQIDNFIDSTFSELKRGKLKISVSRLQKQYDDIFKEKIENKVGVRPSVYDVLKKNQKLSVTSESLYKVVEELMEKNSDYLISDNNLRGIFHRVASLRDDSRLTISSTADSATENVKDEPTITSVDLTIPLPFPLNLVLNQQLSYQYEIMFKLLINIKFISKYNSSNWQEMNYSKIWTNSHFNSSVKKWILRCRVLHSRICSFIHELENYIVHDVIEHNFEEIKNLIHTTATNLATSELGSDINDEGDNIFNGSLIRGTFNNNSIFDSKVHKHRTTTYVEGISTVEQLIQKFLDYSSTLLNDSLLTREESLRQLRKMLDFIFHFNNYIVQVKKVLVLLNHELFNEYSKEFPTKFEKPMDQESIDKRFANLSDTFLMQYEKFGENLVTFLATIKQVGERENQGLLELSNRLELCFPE
T1 sequence (A0A1D8PS42 1-785 partner): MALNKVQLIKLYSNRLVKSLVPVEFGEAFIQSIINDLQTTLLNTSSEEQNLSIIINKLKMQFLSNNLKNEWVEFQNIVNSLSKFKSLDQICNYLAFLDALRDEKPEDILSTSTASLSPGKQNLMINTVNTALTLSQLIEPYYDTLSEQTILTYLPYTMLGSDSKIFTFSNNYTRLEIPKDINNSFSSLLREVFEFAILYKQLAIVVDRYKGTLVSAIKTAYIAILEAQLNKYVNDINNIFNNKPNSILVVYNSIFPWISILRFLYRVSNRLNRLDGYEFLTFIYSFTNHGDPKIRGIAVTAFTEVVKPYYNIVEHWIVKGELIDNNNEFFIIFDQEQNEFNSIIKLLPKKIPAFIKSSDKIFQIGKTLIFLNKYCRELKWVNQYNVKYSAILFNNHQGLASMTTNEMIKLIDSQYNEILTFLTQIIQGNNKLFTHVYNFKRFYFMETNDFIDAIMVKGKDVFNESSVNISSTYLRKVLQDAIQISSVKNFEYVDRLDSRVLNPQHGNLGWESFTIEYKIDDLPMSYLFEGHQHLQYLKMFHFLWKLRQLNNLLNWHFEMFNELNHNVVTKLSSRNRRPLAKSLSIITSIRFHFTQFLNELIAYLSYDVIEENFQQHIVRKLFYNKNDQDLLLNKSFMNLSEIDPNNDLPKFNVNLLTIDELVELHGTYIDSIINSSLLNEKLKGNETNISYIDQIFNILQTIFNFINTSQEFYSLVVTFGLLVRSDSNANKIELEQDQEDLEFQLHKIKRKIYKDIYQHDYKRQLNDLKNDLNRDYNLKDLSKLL
Assay: cryo-EM structure ([…] Å)
Settings: co-purified nucleotide, none added; nucleotide-binding pocket of γ-tubulin; assigned from density lacking γ-phosphate; Table 1 lists 0 ligands in the refined model

Nc1nc2c(ncn2[C@@H]2O[C@H](COP(=O)(O)OP(=O)(O)O)[C@@H](O)[C@H]2O)c(=O)[nH]1 [GDP]
cryo-EM structure (3.6 Å): Our cryo-EM density of the C. albicans γ-TuSC indicates binding of GDP, rather than GTP
